The source of these data is US10189803B2, “Synthesis of therapeutic and diagnostic drugs centered on regioselective and stereoselective ring opening of aziridinium ions” (ILLINOIS INSTITUTE OF TECHNOLOGY, priority 2008, dated 2019).

Structures are written as SMILES.

The assay has as its system HT29 cancer cells. Kind of assay: Fluorescence imaging of cellular uptake in live HT29 cancer cells. The settings on record: 50 μM, 0.5 h incubation. The format is cell-based, Human. The source says:
In order to visualize cellular uptake using fluorescence imaging, C-NE3TA was conjugated with an organic fluorescent moiety, NBD to produce C-NE3TA-NBD (FIG. 40). Thus, the starting material 15 was reacted with NBD-Cl to provide the fluorescent conjugate 16. t-Butyl groups in Compound 16 were removed by treating 4M HCl in 1,4-dioxane. C-NE3TA has the respective excitation and emission wavelength of 446 nm and 512 nm. Fluorescence and phase contrast images of control HT29 cells or HT29 cells incubated with C-NE3TA-NBD (50 μM) were obtained using a confocal microscope with a band-pass filter set at 436/20 nm (excitation) and 535/30 nm (emission). […] It was noted that the control HT29 colon cancer cells also emit auto-fluorescence at the wavelength of excitation. While polyaminocarboxylate NE3TA is too hydrophilic to enter the cancer cells, C-NE3TA-NBD containing liphophilic moieties, both benzyl and NBD group is proposed to penetrate into the cells resulting in the punctuate present in the cancer cells.
Fluorescence Imaging of live cancer cells. HT29 cancer cells were plated in glass cover slips which placed in 6-well plates, and were incubated with growth media in a humidified atmosphere with 5% CO2 at 37° C. overnight. Control cells or cells containing C-NE3TA-NBD (50 μM, H2O) were incubated with media for 0.5 h under 5% CO2 at 37° C. […]
Fluorescence imaging of live cancer cells. […]

For the compound `O=C(O)CNC(Cc1ccc(Nc2ccc([N+](=O)[O-])c3nonc23)cc1)CN1CCN(CC(=O)O)CCN(CC(=O)O)CC1` (stereo not shown) [C-NE3TA-NBD, (4-Carboxymethyl-7-{2-(carboxymethyl-amino)-3-[4-(7-nitro-benzo[1,2,5]oxadiazol-4-ylamino)-phenyl]-propyl}-[1,4,7]triazonan-1-yl)-acetic acid], the “cellular uptake by fluorescence imaging (in words)” value is reported as “does accumulate in the HT29 cancer cells”.
